The source of these data is US12281125B2, “Rapamycin derivatives” (NOVARTIS AG, priority 2018, dated 2025).

The test system of data set [1] is mTORc1 signaling, pS6 (Ser240/244) in MEF TSCl−/− cells. Briefly: Cell-based assay for rapalog potency (pS6) in MEF TSCl−/− cells. The note with it: Mus musculus, 2 hours treatment, average from multiple assays. A digest of the protocol:
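Constitutively mTORc1-active MEF TSC1−/− cells were starved 2 h in glucose/bicarbonate/HEPES DPBS, then exposed 2 h at 37° C to 8-point, 3.16-fold compound dilutions. After fixation, pS6 (Ser240/244) and p4EBP1 (Thr37/46) immunofluorescence was imaged; IC50 (nM) from pS6, averaged over multiple assays.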

For another data set, the target named is T1, FKBP12 (Homo sapiens, UniProt P62942).
T1 construct: made in house; host or cells: E. coli
Briefly: SPR assay, binding affinity to FKBP12. The note with it: equilibrium dissociation constant. The text has this: N-terminal avi-his6-tagged FKBP fusion proteins were expressed in E. coli and purified with nickel chromatography using standard procedures. Biotinylated his-avi-FKBPs were immobilized on a streptavidin chip using a Biacore 8K (GE Healthcare). […] The single-cycle kinetics data were fit to a 1:1 binding model to measure the association rate ka (1/Ms), the dissociation rate kd (1/s) and the affinity KD (M). […] The single-cycle kinetics data was fit to a 1:1 binding model to measure the association rate ka (1/Ms), the dissociation rate kd (1/s) and the apparent affinity KD (M) for ternary complex formation. The equilibrium dissociation constants (KD) to FKBP12, FKBP51, and FKBP52 are shown below in Table 6.

Data set [2] is described as follows: Pharmacokinetic profile in rats. The note with it: male, Sprague-Dawley, blood, rat. Type of data set: in vivo. On the procedure: All procedures involving animals were approved by the Institutional Animal Care and Use Committee of the Novartis Institutes for Biomedical Research, Cambridge, Mass., USA. Adult Sprague Dawley (SD) male rats were purchased from Envigo (Indianapolis, USA). Once imported, rats were maintained at the specific pathogen free facilities with controlled temperature and light (22° C., 12-h light/12-h dark cycle: lights on at 0600 h/lights off at 1800 h) and with ad libitum access to food and water. Rats were acclimated for at least 3 days before experiments commenced.
Various organs were collected and frozen in liquid nitrogen. Blood was collected via a tail vein or a cardiac puncture (terminal) and frozen for further pharmacokinetics analyses. All tissues were stored at −80° C. until analyzed.
Concentrations were determined using HPLC/Mass spectrometry.
Compounds were administered to rats aged 7-9 weeks (N=3 per group) p.o. at 3 mg/kg and intravenously (i.v). at 1 mg/kg (FIGS. 3A and 3B).

Data set [3] relates to mTORC1 pathway (S6 phosphorylation) in rat liver. Briefly: Inhibition of mTORc1 pathway in rat liver (p-S6/t-S6 immunoblot). The data set is classed as in vivo. The note with it: single oral dose 1, 3 and 10 mg/kg, liver at 3 hours, compared with vehicle control. On the procedure:
Rats were given a single oral dose of Compound 2 at 1, 3 or 10 mg/kg, and liver samples were collected at 3 hours following dosing. Rats treated with a vehicle were used as a control. […] GAPDH (glyceraldehyde 3-phosphate dehydrogenase) was used to control for protein loading. […] In the histogram depicted in FIG. 4B, average arbitrary values that indicate p-S6/t-S6 ratios are shown above each bar. X axis represents orally given doses (1, 3, or 10 mg/kg). Y-axis represents arbitrary units. Six rats were used in each experimental group. Data are mean±standard deviation. Data were analyzed with a one way ANOVA followed by Dunnett's multiple comparison tests, where means from all groups were compared to the vehicle treated group. […]. […]
Various organs were collected and frozen in liquid nitrogen. […] All tissues were stored at −80° C. until analyzed.
For protein extraction, snap frozen tissues were lysed in MSD Lysis Buffer (MSD, Rockville, Md.), supplemented with complete EDTA free protease inhibitor and PhosSTOP phosphatase inhibitor tablets (Roche, Manheim, Germany), and centrifuged at 13,000 g for 20 min at 4° C. […] Protein was quantified with BCA protein assay (Thermo Scientific, MA). […] Glyceraldehyde 3-phosphate dehydrogenase (GAPDH) detected with an anti-GAPDH antibody (#5174, Cell Signaling Technologies, MA) was used as a protein loading control. […]

T1 sequence (P62942 whole entry): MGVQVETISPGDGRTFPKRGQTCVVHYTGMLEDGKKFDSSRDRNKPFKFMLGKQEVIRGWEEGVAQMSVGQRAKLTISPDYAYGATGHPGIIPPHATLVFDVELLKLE

Regarding `CO[C@@H]1C[C@H](C[C@@H](C)[C@@H]2CC[C@H](C)/C=C(\C)[C@@H](O)[C@@H](OC)C(=O)[C@H](C)C[C@H](C)/C=C/C=C/C=C(\C)[C@@H](NS(C)(=O)=O)C[C@@H]3CC[C@@H](C)[C@@](O)(O3)C(=O)C(=O)N3CCCC[C@H]3C(=O)O2)CC[C@H]1O` [Compound 2], in data set [1], the 50% inhibitory concentration (IC50) worked out at 0.11 nM. On FKBP12, this molecule displayed a Kd of 4.8 nM. For the same molecule, the clearance in data set [2] (iv, i.v. 1 mg/kg) worked out at 0.78 L/h/kg. Moreover, the half-life in data set [2] (iv, i.v. 1 mg/kg, read-out: iv. terminal half-life (converted)) is 19 h. Besides, the bioavailability in data set [2] (oral, p.o. 3 mg/kg and i.v. 1 mg/kg, solution formulation) came to 16%. Moreover, in data set [3], the “de-phosphorylation (inactivation) of S6 in rat livers” value is “significant de-phosphorylation (inactivation) of S6”.
